{"source": "paper PMC5940903", "about": "“Supramolecular Kandinsky circles with high antibacterial activity” (Nature Communications, 2018)", "key": {"[1]": {"test_system": "Methicillin-resistant S. aureus (MRSA, ATCC 33591)", "assay": "microbe, parasite or virus in culture", "format": "cell-based, Staphylococcus aureus", "conditions": "for MIC: Staphylococcus aureus, read-out: MRSA (MIC)", "method": "Therefore, increasing the solubility of high generation of nested hexagons may enable more efficient studies in biological media and translate to effective antimicrobial activity. […] In addition, the smaller size of G1 was expected to lead to weaker interaction with bacterial membranes.\n(§1) Minimum inhibitory concentrations (MICs) against MRSA.4 The antimicrobial activity of the compounds are tested against Methicillin-resistant S. aureus (MRSA, ATCC 33591). Briefly, a single colony of MRSA bacterium was inoculated in 3 mL TSB medium and allowed to grow overnight at 37 °C. The bacteria culture was then diluted at 1:100 and the bacteria were able to re-grow to mid-logarithmic phase in 6-8 h. Next, 50 µL compounds in 2-fold serially diluted solution with the concentrations of 0.1-25 µg/mL were added the 96-well plate containing 50 µL of bacteria suspension (1 × 10^6 CFU/mL) in each well. Following that, the plate was incubated at 37 °C for 16 h, and the absorption of those wells at 600 nm wavelength was read on a Biotek Synergy H1 microtiter […]\ngrowth of MRSA in 24 h. […]"}, "[2]": {"test_system": "E. coli", "assay": "MIC against Gram-negative bacterium E. coli", "format": "cell-based"}, "[3]": {"test_system": "human red blood cells (hRBCs)", "assay": "Hemolytic assay", "format": "cell-based", "conditions": "37 °C, 1 h", "method": "as §1\ngrowth of MRSA in 24 h. The experiment were repeated at least three times with duplicates each […]\nHemolytic assay.4 The freshly drawn human red blood cells (hRBCs) were washed with 1× PBS buffer multiple times and centrifuged at 3500 rpm for 10 min, until the supernatant became clear. Next, the supernatant was removed, and the RBCs were diluted into 5% v/v suspension. The aliquots of suspension (50 µL) were then incubated with compounds at various concentrations in 2-fold serially diluted solution (50 µL) at 37 °C for 1 h. The mixture was centrifuged at 3500 rpm for 10 min and the supernatant was collected. Following that, 100 µL PBS was added to 30 µL of the supernatant, and the absorbance of the solution at 540 nm was read on a Biotek Synergy H1 plate reader. 2% Triton X-100 was used as the positive control and 1× PBS was used the negative control.\nThe hemolysis activity was calculated by the formula % hemolysis =\n(Abssample-AbsPBS)/(AbsTriton-AbsPBS)×100%. The experiment was repeated at least three times with […]\nConductance measurement on the planar lipid bilayer. The lipids\n1,2-dipalmitoyl-sn-glycero-3-phosphatidylglycerol (DPPG, Avanti Polar Lipids) and 1,2-dipalmitoyl-sn-glycero-3-phosphatidylethanolamine (DPPE, Avanti Polar Lipids) were mixed in chloroform (9:1 in molar ratio, 10 mg/mL, 20 µL). […]"}, "[4]": {"conditions": "Escherichia coli, read-out: E. coli (MIC)"}}, "note": "Read-outs that look alike come from different tables or passages of the source.", "data": [{"smiles": "CCCCCCCCCC(=O)N[C@@H](Cc1c[nH]c2ccccc12)C(=O)N[C@H](CC(N)=O)C(=O)N[C@@H](CC(=O)O)C(=O)N[C@@H]1C(=O)NCC(=O)N[C@@H](CCCN)C(=O)N[C@@H](CC(=O)O)C(=O)N[C@H](C)C(=O)N[C@@H](CC(=O)O)C(=O)NCC(=O)N[C@H](CO)C(=O)N[C@@H]([C@H](C)CC(=O)O)C(=O)N[C@@H](CC(=O)c2ccccc2N)C(=O)O[C@@H]1C", "note": "[Daptomycin, daptomycin, reference compound]", "values": [{"measurement": "MRSA (MIC)", "setting": "[1]; ATCC 33591", "value": 0.5, "unit": "µg/mL"}]}, {"smiles": "CCCCCCOc1c(-c2ccc(-c3cc(-c4ccccn4)nc(-c4ccccn4)c3)cc2)c(OCCCCCC)c(-c2ccc(-[n+]3c(-c4ccc(-c5ccc(-c6cc(-c7ccccn7)nc(-c7ccccn7)c6)cc5)cc4)cc(-c4ccc(-[n+]5c(-c6ccc(-c7ccc(-c8ccc(-c9cc(-c%10ccccn%10)nc(-c%10ccccn%10)c9)cc8)cc7)cc6)cc(-c6ccc(C(C)(C)C)cc6)cc5-c5ccc(-c6ccc(-c7ccc(-c8cc(-c9ccccn9)nc(-c9ccccn9)c8)cc7)cc6)cc5)cc4)cc3-c3ccc(-c4ccc(-c5cc(-c6ccccn6)nc(-c6ccccn6)c5)cc4)cc3)cc2)c(OCCCCCC)c1-c1ccc(-c2cc(-c3ccccn3)nc(-c3ccccn3)c2)cc1", "note": "[L3]", "values": [{"measurement": "MIC", "setting": "[1]", "value": "> 100", "unit": "µg/mL"}, {"measurement": "MIC", "setting": "[2]; [4]", "value": "> 100", "unit": "µg/mL"}, {"measurement": "Hemolysis (H50)", "setting": "[3]", "value": ">250"}]}, {"smiles": "CCCCCCOc1c(-c2ccc(N)cc2)c(OCCCCCC)c(-c2ccc(-c3cc(-c4ccccn4)nc(-c4ccccn4)c3)cc2)c(OCCCCCC)c1-c1ccc(-c2cc(-c3ccccn3)nc(-c3ccccn3)c2)cc1", "note": "[L1]", "values": [{"measurement": "MIC", "setting": "[1]; MRSA ATCC 33591, TSB medium, 37 °C", "value": "> 100", "unit": "µg/mL"}, {"measurement": "MIC", "setting": "[2]; Escherichia coli; read-out: E. coli (MIC)", "value": "> 100", "unit": "µg/mL"}, {"measurement": "Hemolysis (H50)", "setting": "[3]", "value": ">250"}]}, {"smiles": "CCCCCCOc1c(-c2ccc(-c3cc(-c4ccccn4)nc(-c4ccccn4)c3)cc2)c(OCCCCCC)c(-c2ccc(-[n+]3c(-c4ccc(-c5ccc(-c6cc(-c7ccccn7)nc(-c7ccccn7)c6)cc5)cc4)cc(-c4ccc(C(C)(C)C)cc4)cc3-c3ccc(-c4ccc(-c5cc(-c6ccccn6)nc(-c6ccccn6)c5)cc4)cc3)cc2)c(OCCCCCC)c1-c1ccc(-c2cc(-c3ccccn3)nc(-c3ccccn3)c2)cc1", "note": "[L2]", "values": [{"measurement": "MIC", "setting": "[1]", "value": "> 100", "unit": "µg/mL"}, {"measurement": "MIC", "setting": "[2]; [4]", "value": "> 100", "unit": "µg/mL"}, {"measurement": "Hemolysis (H50)", "setting": "[3]", "value": ">250"}]}]}
